The assay has as its target T1, human recombinant mGluR5 (Homo sapiens, UniProt P41594).
T1 construct: expressed in transfected cells; host or cells: HEK 293
The experiment in a line: positive modulation of mGluR5, calcium based FLIPR assay. The settings on record: EC50 of the modulation; HEK 293 cell line expressing human recombinant mGluR5; glutamate at approximately 5% basal stimulation; peak height of Ca fluorescence signal. Here is the method:
The positive modulation of mGluR5 is measured in a HEK 293 cell line expressing human recombinant mGluR5 and is detected with calcium based FLIPR assay. The cells are cultured with DMEM supplemented with 10% FCS, 2 μg/mL tetracycline, 100 μg/mL hygromycin and 500 μg/mL gneticin. The cell culture media is exchanged for tetracycline-free cell culture media 3-7 days before the assay. One day before the assay the cell culture medium is exchanged to DMEM without glutamine and phenol red and supplemented with 10% FCS, 100 μg/mL hygromycin and 500 μg/mL geneticin. On the assay day, the medium of the subconfluent cultures is removed and the cells are detached by addition of 2.5 ml EDTA(0.02%) per 175 cm2 culture flask for 1 minute. The cells are resuspend in Ringer solution (140 mM NaCl, 5 mM KCl, 2.5 mM CaCl2, 1.5 mM MgCl2, 5 mM Glucose, 10 mM Hepes; adjusted to pH 7.4 with NaOH), pooled and Ringer solution added to adjust the volume to 50 mL. The cell suspension is centrifuged for […] at 1500 U/min (425 g). The supernatant is removed and the cells washed a second time with 50 ml fresh Ringer solution and centrifuged again as before. The supernatant is again removed and the pellet resuspended in Ringer solution to 1,000,000 cells/ml (1×10^6 cells/mL). The cells are plated onto BD BioCoat Poly-D-Lysine 384 well plates (20,000 cells/well; 20 μl/well). The lid covered plates are then incubated until use at 37° C./10% CO2. For dye loading, 20 μl of Calcium-4 assay kit solution (prepared according to the manufacturer's description in Ringer solution) are added to the cells and the plates are incubated for […] 37° C. and then […] at room temperature.
Controls, Compound Dilution and Assay Execution:
Each assay plate contained wells with “high” and “low” controls:
Low controls 1% DMSO/ringer solution + basal glutamate activation (defined as 100% CTL).
High controls 10 μM CDPPB+ basal glutamate activation (defined as 200% CTL).
Test compounds are dissolved and diluted in DMSO to 100-fold the desired concentrations. In a second step, the compounds are diluted in Ringer solution such that the compounds are 4-fold more concentrated than the desired final assay concentration. The final DMSO concentration was 1%.
20 μl of each compound solution are then transferred to the assay plate and the Ca2+ kinetic is measured to determine any intrinsic compound activity. After 5 mM incubation in the FLIPR device, the second stimulation with 20 μl of glutamate in Ringer solution (glutamate concentration adjusted to approximately 5% basal stimulation of the maximal possible glutamate effect) is added and the kinetic Ca2+ response of the wells was measured for the modulation effect.
The peak height of the Ca release related fluorescence signal (9-66) is used for the EC50. The EC50 of the modulation is calculated over a nonlinear regression with GraphPad Prism (Table 1).
T1 sequence (P41594 21-1212): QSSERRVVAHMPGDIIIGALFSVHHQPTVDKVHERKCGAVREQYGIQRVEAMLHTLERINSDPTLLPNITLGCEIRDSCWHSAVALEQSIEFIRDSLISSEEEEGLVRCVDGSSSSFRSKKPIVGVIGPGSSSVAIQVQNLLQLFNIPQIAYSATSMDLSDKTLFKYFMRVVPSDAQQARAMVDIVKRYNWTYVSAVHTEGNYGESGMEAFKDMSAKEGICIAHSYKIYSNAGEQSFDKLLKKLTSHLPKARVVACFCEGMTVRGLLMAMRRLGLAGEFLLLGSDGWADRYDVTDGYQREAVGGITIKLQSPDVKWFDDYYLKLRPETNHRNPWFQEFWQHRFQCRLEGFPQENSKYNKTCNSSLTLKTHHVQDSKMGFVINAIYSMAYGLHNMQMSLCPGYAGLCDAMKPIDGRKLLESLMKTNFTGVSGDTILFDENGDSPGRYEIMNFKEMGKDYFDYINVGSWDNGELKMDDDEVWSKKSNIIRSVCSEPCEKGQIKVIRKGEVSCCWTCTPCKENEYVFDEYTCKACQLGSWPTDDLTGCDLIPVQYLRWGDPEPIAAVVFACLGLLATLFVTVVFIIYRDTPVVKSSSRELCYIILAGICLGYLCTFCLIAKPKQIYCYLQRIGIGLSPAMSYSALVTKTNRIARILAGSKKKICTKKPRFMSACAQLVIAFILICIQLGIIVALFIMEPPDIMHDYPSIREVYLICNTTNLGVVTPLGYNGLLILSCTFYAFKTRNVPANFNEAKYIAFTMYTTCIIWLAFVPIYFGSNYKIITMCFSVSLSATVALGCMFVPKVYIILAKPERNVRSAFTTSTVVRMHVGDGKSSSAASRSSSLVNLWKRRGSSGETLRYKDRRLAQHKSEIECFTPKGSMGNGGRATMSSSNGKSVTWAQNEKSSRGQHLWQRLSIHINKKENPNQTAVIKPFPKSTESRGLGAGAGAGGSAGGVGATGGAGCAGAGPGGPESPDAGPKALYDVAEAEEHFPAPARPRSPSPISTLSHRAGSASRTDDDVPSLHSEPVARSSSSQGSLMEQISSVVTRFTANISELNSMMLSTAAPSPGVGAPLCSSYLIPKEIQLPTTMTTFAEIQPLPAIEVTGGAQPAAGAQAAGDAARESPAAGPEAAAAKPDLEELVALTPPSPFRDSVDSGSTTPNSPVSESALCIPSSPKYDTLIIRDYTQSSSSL
What is called EC50 is the midpoint of the concentration-response curve. As for `Cc1nc2c(o1)CN(C(=O)Cc1nc(-c3ccc(F)cc3)cn1-c1ccc(F)cc1)CC2` [Example 7.01.01., 2-(1,4-Bis-(4-fluoro-phenyl)-1H-imidazol-2-yl)-1-(2-methyl-6,7-dihydro-4H-oxazolo[5,4-c]pyridin-5-yl)-ethanone], the EC50 was found to be 784 nM.

`Nc1nc2c(s1)CCN(C(=O)Cc1nc(-c3ccc(F)cc3)cn1-c1ccc(F)cc1)CC2` [Example 7.01.02.]: the concentration for a half-maximal effect (EC50) turned out to be 109 nM.

Take `Cc1nc2c(s1)CCN(C(=O)Cc1nc(-c3ccc(F)cc3)cn1-c1ccc(F)cc1)CC2` [Example 7.02.01., 2-[1,4-Bis-(4-fluoro-phenyl)-1H-imidazol-2-yl]-1-(2-methyl-4,5,7,8-tetrahydro-thiazolo[4,5-d]azepin-6-yl)-ethanone]: the concentration giving a half-maximal response (EC50) is 94 nM.

As for `O=C(Cc1nc(-c2ccc(F)cc2)cn1-c1ccc(F)cc1)N1CCN(c2noc3ccccc23)CC1` [Example 7.02.02.], the EC50 was 114 nM.

For the compound `Cc1nc2c(s1)CN(C(=O)Cc1nc(-c3ccc(F)cc3)cn1-c1ccc(F)cc1)C2` [Example 7.02.03.], the EC50 is 210 nM.

As for `Cc1ccc(-c2cn(-c3ccc(F)cc3)c(CC(=O)N3CCc4nc(C)oc4C3)n2)cc1` [Example 7.02.04.], the EC50 worked out at 375 nM.

As to `Cc1ccc(-c2cn(-c3ccc(F)cc3)c(CC(=O)N3CCc4nc(N)sc4CC3)n2)cc1` [Example 7.02.05.], the EC50 amounted to 52 nM.

Take `Cc1ccc(-c2cn(-c3ccc(F)cc3)c(CC(=O)N3CCc4nc(C)sc4CC3)n2)cc1` [Example 7.02.06.]: the EC50 stood at 93 nM.

Take `COc1cccc(N2CCN(C(=O)Cc3nc(-c4ccc(C)cc4)cn3-c3ccc(F)cc3)CC2=O)c1` [Example 7.02.07.]: the EC50 was determined as 96 nM.

Consider `Cc1ccc(-c2cn(-c3ccc(F)cc3)c(CC(=O)N3CCN(c4cccc(C#N)c4)C(=O)C3)n2)cc1` [Example 7.02.08.], for which the EC50 turned out to be 32 nM.

On to `Cc1ccc(-c2cn(-c3ccc(F)cc3)c(CC(=O)N3Cc4nc(C)sc4C3)n2)cc1` [Example 7.02.09.], for which the concentration giving a half-maximal response (EC50) is 90 nM.

With `COc1ccc(-c2cn(-c3ccc(F)cc3)c(CC(=O)N3CCc4nc(N)sc4CC3)n2)cc1` [Example 7.02.11.], the EC50 stood at 103 nM.

As for `COc1ccc(-c2cn(-c3ccc(F)cc3)c(CC(=O)N3CCc4nc(C)sc4CC3)n2)cc1` [Example 7.02.12.], the EC50 turned out to be 39 nM.

As to `COc1ccc(-c2cn(-c3ccc(F)cc3)c(CC(=O)N3CCN(c4cccc(OC)c4)C(=O)C3)n2)cc1` [Example 7.02.13.], the half-maximal effective concentration (EC50) worked out at 74 nM.

Take `COc1ccc(-c2cn(-c3ccc(F)cc3)c(CC(=O)N3Cc4nc(C)sc4C3)n2)cc1` [Example 7.02.14.]: the half-maximal effective concentration (EC50) stood at 87 nM.

On to `Cc1nc2c(s1)CCN(C(=O)Cc1nc(-c3ccc(Cl)c(C)c3)cn1-c1ccc(F)cc1)CC2` [Example 7.02.15.], for which the EC50 came out at 45 nM.

`Cc1cc(-c2cn(-c3ccc(F)cc3)c(CC(=O)N3CCc4nc(N)sc4CC3)n2)ccc1Cl` [Example 7.02.16.]: the EC50 worked out at 70 nM.

For the compound `Cc1nc2c(o1)CN(C(=O)Cc1nc(-c3ccc(Cl)c(C)c3)cn1-c1ccc(F)cc1)CC2` [Example 7.02.17.], the 50% effective concentration (EC50) was found to be 80 nM.

Turning to `Cc1nc2c(s1)CCN(C(=O)Cc1nc(-c3ccc(F)c(C)c3)cn1-c1ccc(F)cc1)CC2` [Example 7.02.18.], the EC50 is 67 nM.

Turning to `Cc1nc2c(o1)CN(C(=O)Cc1nc(-c3ccc(F)c(C)c3)cn1-c1ccc(F)cc1)CC2` [Example 7.02.19.], the EC50 amounted to 67 nM.

Turning to `Cc1cc(-c2cn(-c3ccc(F)cc3)c(CC(=O)N3CCc4nc(N)sc4CC3)n2)ccc1F` [Example 7.02.20.], the EC50 is 70 nM.

Consider `COc1cccc(-c2cn(-c3ccc(F)cc3)c(CC(=O)N3CCc4nc(C)oc4C3)n2)c1` [Example 7.02.21.], for which the EC50 amounted to 1120 nM.

Consider `COc1cccc(-c2cn(-c3ccc(F)cc3)c(CC(=O)N3CCc4nc(C)sc4CC3)n2)c1` [Example 7.02.22.], for which the EC50 came out at 138 nM.

On to `COc1ccc(-c2cn(-c3ccccc3)c(CC(=O)N3CCc4nc(N)sc4CC3)n2)cc1` [Example 7.02.23.], for which the EC50 is 394 nM.

In the case of `COc1ccc(-c2cn(-c3ccccc3)c(CC(=O)N3CCc4nc(C)sc4CC3)n2)cc1` [Example 7.02.24.], the EC50 came out at 125 nM.

As for `COc1ccc(-c2cn(-c3ccccc3)c(CC(=O)N3CCc4nc(C)oc4C3)n2)cc1` [Example 7.02.25.], the EC50 amounted to 1440 nM.

With `Cc1cc(-c2cn(-c3ccccc3)c(CC(=O)N3CCc4nc(N)sc4CC3)n2)ccc1F` [Example 7.02.26.], the EC50 is 71 nM.

For the compound `COc1cccc(N2CCN(C(=O)Cc3nc(-c4ccc(F)c(C)c4)cn3-c3ccccc3)CC2=O)c1` [Example 7.02.27.], the EC50 came to 94 nM.

Take `Cc1nc2c(s1)CN(C(=O)Cc1nc(-c3ccc(F)c(C)c3)cn1-c1ccccc1)C2` [Example 7.02.28.]: the half-maximal effective concentration (EC50) was determined as 48 nM.

For `Cc1nc2c(s1)CCN(C(=O)Cc1nc(-c3ccc(F)c(C)c3)cn1-c1ccccc1)CC2` [Example 7.02.29.], the EC50 amounted to 33 nM.

In the case of `COc1ccc(-c2cn(-c3ccc(F)cc3)c(CC(=O)N3CCN(c4cccc(C#N)c4)C(=O)C3)n2)cc1` [Example 7.02.30.], the EC50 is 82 nM.

Values taken from US8716277B2, “Substituted imidazole compounds useful as positive allosteric modulators of mGlu5 receptor activity” (Boehringer Ingelheim International GmbH, priority 2011, dated 2014).
